Data taken from ChEMBL document CHEMBL1159029, “An Epoxydon-Derived Ester from a Phoma sp. Pathogenic to Rhubarb” (1992).

How the values were obtained:
[1] = system: Sorghum bicolor; test: Phytotoxicity against Sorghum bicolor assessed as brownish-black necrotic lesion area at 50 ug within 48 hrs by detached leaf assay; type: functional
[2] = system: Rheum rhabarbarum; test: Phytotoxicity against Rhubarb assessed as brownish-black necrotic lesion area at 50 ug up to 48 hrs by detached leaf assay; type: functional
[3] = system: Sida spinosa; test: Phytotoxicity against Sida spinosa assessed as brownish-black necrotic lesion area at 50 ug within 48 hrs by detached leaf assay; type: functional
[4] = system: Ipomoea; test: Phytotoxicity against Ipomoea sp. assessed as brownish-black necrotic lesion area at 50 ug within 48 hrs by detached leaf assay; type: functional
[5] = system: Datura stramonium; test: Phytotoxicity against Datura stramonium assessed as brownish-black necrotic lesion area at 50 ug within 48 hrs by detached leaf assay; type: functional
[6] = system: Sorghum halepense; test: Phytotoxicity against Sorghum halepense assessed as brownish-black necrotic lesion area at 50 ug within 48 hrs by detached leaf assay; type: functional
[7] = system: Senna obtusifolia; test: Phytotoxicity against Senna obtusifolia assessed as brownish-black necrotic lesion area at 50 ug within 48 hrs by detached leaf assay; type: functional
[8] = system: Chenopodium album; test: Phytotoxicity against Chenopodium album assessed as brownish-black necrotic lesion area at 50 ug within 48 hrs by detached leaf assay; type: functional
[9] = system: Escherichia coli; test: Antimicrobial activity against Escherichia coli DH 5alpha at 0.5 mg/disk by disk assay; type: functional
[10] = system: Escherichia coli; test: Antimicrobial activity against Escherichia coli DH 5alpha at 1 mg/disk by disk assay; type: functional
[11] = system: Agrobacterium tumefaciens; test: Antimicrobial activity against Agrobacterium tumefaciens C-58 at 0.5 mg/disk by disk assay; type: functional
[12] = system: Agrobacterium tumefaciens; test: Antimicrobial activity against Agrobacterium tumefaciens C-58 at 1 mg/disk by disk assay; type: functional
[13] = system: Curtobacterium flaccumfaciens; test: Antimicrobial activity against Corynebacterium flaccumfaciens CF-20 at 0.5 mg/disk by disk assay; type: functional
[14] = system: Curtobacterium flaccumfaciens; test: Antimicrobial activity against Corynebacterium flaccumfaciens CF-20 at 1 mg/disk by disk assay; type: functional
[15] = system: Pectobacterium carotovorum; test: Antimicrobial activity against Erwinia carotovora EC-14 at 0.5 mg/disk by disk assay; type: functional
[16] = system: Pectobacterium carotovorum; test: Antimicrobial activity against Erwinia carotovora EC-14 at 1 mg/disk by disk assay; type: functional
[17] = system: Aspergillus flavus; test: Antimicrobial activity against Aspergillus flavus AF3357 at 0.5 mg/disk by disk assay; type: functional, AF-3357
[18] = system: Aspergillus flavus; test: Antimicrobial activity against Aspergillus flavus AF3357 at 1 mg/disk by disk assay; type: functional, AF-3357
[19] = system: Penicillium chrysogenum; test: Antimicrobial activity against Penicillium notatum AT-9479 at 0.5 mg/disk by disk assay; type: functional
[20] = system: Penicillium chrysogenum; test: Antimicrobial activity against Penicillium notatum AT-9479 at 1 mg/disk by disk assay; type: functional
[21] = system: Colletotrichum acutatum; test: Antimicrobial activity against Colletotrichum acutatum NC 1618 at 0.5 mg/disk by disk assay; type: functional
[22] = system: Colletotrichum acutatum; test: Antimicrobial activity against Colletotrichum acutatum NC 1618 at 1 mg/disk by disk assay; type: functional
[23] = system: Phoma; test: Antimicrobial activity against Phoma sp. at 0.5 mg/disk by disk assay; type: functional
[24] = system: Nasturtium officinale; test: Phytotoxicity against Nasturtium officinale assessed as brownish-black necrotic lesions area at 50 ug within 48 hrs by detached leaf assay; type: functional
[25] = system: Escherichia coli; test: Antimicrobial activity against Escherichia coli DH 5alpha at 0.25 mg/disk by disk assay; type: functional
[26] = system: Agrobacterium tumefaciens; test: Antimicrobial activity against Agrobacterium tumefaciens C-58 at 0.25 mg/disk by disk assay; type: functional
[27] = system: Curtobacterium flaccumfaciens; test: Antimicrobial activity against Corynebacterium flaccumfaciens CF-20 at 0.25 mg/disk by disk assay; type: functional
[28] = system: Pectobacterium carotovorum; test: Antimicrobial activity against Erwinia carotovora EC-14 at 0.25 mg/disk by disk assay; type: functional
[29] = system: Aspergillus flavus; test: Antimicrobial activity against Aspergillus flavus AF3357 at 0.25 mg/disk by disk assay; type: functional, AF-3357
[30] = system: Penicillium chrysogenum; test: Antimicrobial activity against Penicillium notatum AT-9479 at 0.25 mg/disk by disk assay; type: functional
[31] = system: Colletotrichum acutatum; test: Antimicrobial activity against Colletotrichum acutatum NC 1618 at 0.25 mg/disk by disk assay; type: functional

SMILES	Activity [1]	Activity [2]	Activity [3]	Activity [4]	Activity [5]	Activity [6]	Activity [7]	Activity [8]	Diameter of inhibition zone [9]	Diameter of inhibition zone [11]	Diameter of inhibition zone [13]	Diameter of inhibition zone [15]	Diameter of inhibition zone [17]	Diameter of inhibition zone [19]	Diameter of inhibition zone [21]	Diameter of inhibition zone [23]	Activity [24]	Diameter of inhibition zone [25]	Diameter of inhibition zone [26]	Diameter of inhibition zone [27]	further results
Cc1cccc(O)c1C(=O)O	37 mm2	55 mm2	23 mm2	15 mm2	48 mm2	15 mm2	11 mm2	27 mm2	0 mm	18 mm	16 mm	0 mm	10 mm	12 mm	8 mm	16 mm	17 mm2				Diameter of inhibition zone [10]: 0 mm; Diameter of inhibition zone [12]: 25 mm; Diameter of inhibition zone [14]: 21 mm; Diameter of inhibition zone [16]: 0 mm; Diameter of inhibition zone [18]: 17 mm; Diameter of inhibition zone [20]: 18 mm; Diameter of inhibition zone [22]: 22 mm
Cc1cccc(O)c1C(=O)O[C@@H]1C(=O)C(CO)=C[C@@H](O)[C@H]1O	41 mm2	18 mm2	24 mm2	21 mm2	9 mm2	7 mm2	33 mm2	13 mm2									44 mm2				
O=C1C(CO)=C[C@@H](O)[C@H]2O[C@@H]12 [EPOXYDON]	31 mm2	27 mm2	25 mm2	51 mm2	31 mm2	37 mm2	17 mm2	62 mm2	25.3 mm	12 mm	20 mm	17 mm	8 mm	10 mm	12 mm		41 mm2	18 mm	10 mm	12 mm	Diameter of inhibition zone [28]: 9 mm; Diameter of inhibition zone [29]: 0 mm; Diameter of inhibition zone [30]: 0 mm; Diameter of inhibition zone [31]: 10 mm
CC1=C[C@@H](O)[C@H]2O[C@H]2C1=O [DESOXYEPOXYDON]	69 mm2	42 mm2	74 mm2	64 mm2	73 mm2	30 mm2	51 mm2	57 mm2	44 mm	56 mm	49 mm	45 mm	22 mm	27 mm	60 mm	30 mm	34 mm2	35 mm	43 mm	38 mm	Diameter of inhibition zone [28]: 31 mm; Diameter of inhibition zone [29]: 15 mm; Diameter of inhibition zone [30]: 15 mm; Diameter of inhibition zone [31]: 40 mm
